Biological target: T1, CRP (Homo sapiens, UniProt P02741)
T1 sequence (P02741 19-224): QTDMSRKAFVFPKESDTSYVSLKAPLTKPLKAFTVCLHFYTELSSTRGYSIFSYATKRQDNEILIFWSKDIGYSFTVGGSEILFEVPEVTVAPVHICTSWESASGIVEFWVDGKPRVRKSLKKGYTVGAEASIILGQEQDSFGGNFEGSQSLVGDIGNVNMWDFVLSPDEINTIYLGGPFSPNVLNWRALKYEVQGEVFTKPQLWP
Assay: rat acute myocardial infarction model (coronary artery ligation) with administered human CRP
Assay type: in vivo
Settings: ischaemia reperfusion design and terminal coronary artery ligation, Pepys, unpublished observations
Excerpt: Human CRP and activated rat complement were deposited in and around the infarct and the exacerbation of tissue damage was absolutely complement dependent. Similar observations were made in the middle cerebral artery occlusion model of stroke in rats (3).
The design of the first small molecule inhibitor of CRP binding for use in vivo, bis(phosphocholine)hexane (BPC6), enabled conclusive confirmation of the pathogenic role of human CRP in exacerbating tissue damage after ischaemic infarction (2).
BPC6 and BPC8 are avidly bound by CRP, cross linking pairs of the native pentameric protein molecules. […] However, the bis(phosphocholine)alkane series of compounds were difficult to synthesise and purify at scale.

Row | Structure (SMILES) | protective effect against human CRP pathogenicity
1 | C[N+](C)(C)CCOP(=O)(O)OCCCCCCCCOP(=O)(O)OCC[N+](C)(C)C [Example 12, bis(phosphocholine)octane] | same protective effect

Biological target: T1, CRP
Assay: inhibition of CRP binding in vitro
Settings: Pepys, unpublished observations

Row | Structure (SMILES) | potency as inhibitor of CRP binding in vitro, compared with BPC6
2 | C[N+](C)(C)CCOP(=O)(O)OCCCCCCCCOP(=O)(O)OCC[N+](C)(C)C [Example 12, bis(phosphocholine)octane] | more potent inhibitor of CRP binding in vitro

Biological target: T1, CRP
Assay: not given
Settings: rats undergoing coronary artery ligation and receiving human CRP; cited from earlier work

Row | Structure (SMILES) | increased damage caused by human CRP after coronary artery ligation
3 | C[N+](C)(C)CCOP(=O)([O-])OCCCCCCOP(=O)([O-])OCC[N+](C)(C)C [BPC6, bis(phosphocholine)hexane] | completely abrogated the increased damage

Biological target: T1, CRP
Assay: MIRA immunoturbidimetric assay (inhibition of CRP recognition, COBAS MIRA autoanalyser)
Assay type: binding
Set-up: The final concentrations were 0.73 μM native pentameric CRP; from tissue
Settings: 0.73 μM native pentameric CRP, TC buffer, 1 h at room temperature; read-out: IC50
Excerpt: The CRP immunoturbidimetric assay on the Roche COBAS MIRA Plus autoanalyser, utilises two different sized latex particles that are covalently coupled with two different monoclonal antibodies with specificity for different CRP epitopes (5). The assay was validated by Roche for measurement of native pentameric CRP, for which it has high sensitivity and specificity and a high upper detection limit; it was calibrated against a standard produced in our laboratory. Serendipitously, one of the assay's antibodies binds to an epitope present on the ligand binding B face of CRP. Thus, when the binding pocket is occupied by ligand or is occluded, for example by B face to B face complexing of pentamers, the assay fails to detect CRP although it is demonstrable by other types of assays that employ antibodies which bind to different epitopes. Bivalent compounds such as BPC8 and APL-2191 were designed to crosslink pairs of CRP pentamers. Therefore, inhibition of CRP recognition in the MIRA assay is a convenient tool to monitor the efficacy and potency of complex formation between such ligands and CRP (6).
CRP concentrations were measured in the presence and absence of ligands by the COBAS MIRA autoanalyser. Concentrated Tris-calcium buffer (×10 TC) was prepared in MilliQ water from trishydroxymethyamine (100 mM), calcium chloride (20 mM) and sodium chloride (1.4 M). The pH was adjusted to 8.0 using HCl and sodium azide was added (0.1% w/v); the buffer was stored at 4° C. A tenfold diluted working buffer (TC) was prepared by dilution 100 ml of the ×10 concentrated buffer with 900 ml of MilliQ water. Human CRP was isolated, purified and characterised as previously reported (6-9) and stored frozen at −80° C. When required, stock CRP was thawed at 37° C. and working dilutions prepared that were kept at 4° C. for the duration of an experiment. CRP concentration was determined spectrophotometrically (Beckman Coulter DU 650) in quartz cuvettes with a 1 cm light path, by measuring […] after correction for absorbance at 320 nm (light scattering) and using the measured absorption coefficient A (1%, 1 cm)=17.5 for human CRP (10). Human CRP at ˜90 μg/ml (0.78 μM of pentamer) in TC buffer was prepared from a stock solution; a 75 μl aliquot was used in the assay. Compounds were supplied by Wuxi AppTec (Wuhan, China) as solids. They were dissolved in TC buffer at suitable concentrations, depending on solubility, of up to 10 mM (labelled S1). They were then serially diluted 1:2 with TC buffer (100 μl ligand+200 μl TC) to provide up to 9 dilutions, S2-S10. A TC buffer control (50) was included in each assay. A 15 μl volume of each ligand solution was incubated with 75 μl of CRP for 1 h at room temperature. The final concentrations were 0.73 μM native pentameric CRP, ligands S1-S10=625-0.03 μM, corresponding to ligand:CRPr ratios of 850-0.04. Where compounds were of reduced solubility in TC buffer, lower stock concentrations were used (from 0.6 mM), corresponding to final top assay concentrations of 100 μM.
Data are expressed as measured CRP (mg/L) against final total ligand concentration (μM) and were plotted using Sigmaplot (V14) using the 4 parameter logistic curve y=min+(max−min)/(1+(x/EC50)[…]) to calculate EC50. Where appropriate, samples were also measured in whole normal human serum following the addition of a known amount of human CRP. All compounds were assayed in comparison with a highly purified preparation of bis(phosphocholine)octane (BPC8), that was prepared by Carbogen AMCIS AG and diluted into sterile water at 10 mM concentration. It was stored at −80° C. The solution was diluted into TC buffer as required.

Row | Structure (SMILES) | IC50 [µM]
4 | O=C(N[C@@H](C(=O)O)C1CN2CCC1CC2)c1ccc(C(=O)N[C@@H](C(=O)O)C2CN3CCC2CC3)cc1 (stereo partly drawn) [Example 1, (R,2R,2′R)-2,2′-(terephthaloylbis(azanediyl))bis(2-((R)-quinuclidin-3-yl)acetic acid)] | 0.6
5 | O=C(N[C@@H](C(=O)O)[C@H]1CN2CCC1CC2)c1cc(OCc2ccccc2)c(C(=O)N[C@@H](C(=O)O)[C@H]2CN3CCC2CC3)cc1OCc1ccccc1 [Example 10] | 0.67
6 | O=C(N[C@@H](C(=O)O)[C@H]1CN2CCC1CC2)c1ccc2cc(C(=O)N[C@@H](C(=O)O)[C@H]3CN4CCC3CC4)ccc2c1 [Example 7, (R,2R,2′R)-2,2′-((naphthalene-2,6-dicarbonyl)bis(azanediyl))bis(2-((R)-quinuclidin-3-yl)acetic acid)] | 0.51
7 | O=C(N[C@@H](C(=O)O)[C@H]1CN2CCC1CC2)c1cnc(C(=O)N[C@@H](C(=O)O)[C@H]2CN3CCC2CC3)cn1 [Example 3, (R,2R,2′R)-2,2′-((pyrazine-2,5-dicarbonyl)bis(azanediyl))bis(2-((R)-quinuclidinyl)acetic acid)] | 1.22
8 | C[N+](C)(C)CCOP(=O)(O)OCCCCCCCCOP(=O)(O)OCC[N+](C)(C)C [Example 12, bis(phosphocholine)octane] | 1.2
9 | O=C(N[C@@H](C(=O)O)[C@H]1CN2CCC1CC2)c1ccc(C(=O)N[C@@H](C(=O)O)[C@H]2CN3CCC2CC3)nc1 [Example 2, (R,2R,2′R)-2,2′-((pyridine-2,5-dicarbonyl)bis(azanediyl))bis(2-((R)-quinuclidinyl)acetic acid)] | 0.65
10 | Cc1cc(C(=O)N[C@@H](C(=O)O)[C@H]2CN3CCC2CC3)ccc1-c1ccc(C(=O)N[C@@H](C(=O)O)[C@H]2CN3CCC2CC3)cc1 [Example 6, (R)-2-(4′-(((R)-carboxy((R)-quinuclidin-3-yl)methyl)carbamoyl)-2′-methyl-[1,1′-biphenyl]-4-ylcarboxamido)-2-((R)-quinuclidin-3-yl)acetic acid] | 0.56
11 | O=C(N[C@@H](C(=O)O)[C@H]1CN2CCC1CC2)c1ccc(-c2ccc(C(=O)N[C@@H](C(=O)O)[C@H]3CN4CCC3CC4)cc2)cc1 [Example 5, (R)-2-(4′-(((R)-carboxy((R)-quinuclidin-3-yl)methyl)carbamoyl)-[1,1′-biphenyl]-4-ylcarboxamido)-2-((R)-quinuclidin-3-yl)acetic acid] | 0.73
12 | O=C(N[C@@H](C(=O)O)[C@H]1CN2CCC1CC2)c1cccc(C(=O)N[C@@H](C(=O)O)[C@H]2CN3CCC2CC3)c1 [Example 11, 2-[[3-[[carboxy-1(3R)-quinuclidin-3-yl]methyl]carbamoyl]benzoylamino]-2-[(3R)-quinuclidin-3-yl]acetic acid] | 2.02
13 | Cc1cc(C(=O)N[C@@H](C(=O)O)[C@H]2CN3CCC2CC3)ccc1C(=O)N[C@@H](C(=O)O)[C@H]1CN2CCC1CC2 [Example 9] | 0.55
14 | O=C(N[C@@H](C(=O)O)[C@H]1CN2CCC1CC2)c1ccc(C(=O)N[C@@H](C(=O)O)[C@H]2CN3CCC2CC3)nn1 [Example 4, (R,2R,2′R)-2,2′-((pyridazine-3,6-dicarbonyl)bis(azanediyl))bis(2-((R)-quinuclidin-3-yl)acetic acid)] | 0.58
15 | Cc1cc(C(=O)N[C@@H](C(=O)O)[C@H]2CN3CCC2CC3)c(C)cc1C(=O)N[C@@H](C(=O)O)[C@H]1CN2CCC1CC2 [Example 8] | 0.59

Same assay, conditions: alternative stereoisomers of the formula (I) structure; read-out: IC50 of alternative stereoisomers (QA,QA: Quinuclidine, Amino Acid)

Row | Structure (SMILES) | IC50 [µM]
16 | O=C(NC(C(=O)O)C1CN2CCC1CC2)c1ccc(C(=O)NC(C(=O)O)C2CN3CCC2CC3)cc1 (single isomer, unassigned) [SR,SR] | > 1000
17 | O=C(NC(C(=O)O)C1CN2CCC1CC2)c1ccc(C(=O)NC(C(=O)O)C2CN3CCC2CC3)cc1 (single isomer, unassigned) [SS,SS] | 34.4
18 | O=C(NC(C(=O)O)C1CN2CCC1CC2)c1ccc(C(=O)NC(C(=O)O)C2CN3CCC2CC3)cc1 (single isomer, unassigned) [RS,RS] | > 1000
19 | O=C(NC(C(=O)O)C1CN2CCC1CC2)c1ccc(C(=O)NC(C(=O)O)C2CN3CCC2CC3)cc1 (single isomer, unassigned) [RS,RR] | > 1000
